Tests used:
[1] = system: HMGB1 induced VEGF production in ARPE-19 cells; assay: HMGB1 induced VEGF production in ARPE-19 cells (ELISA); type: cell-based, human; settings: 50 μg/mL, 100 ng/mL HMGB1, 24 h, p<0.01
Source text: Central to photoreceptor survival and function, the RPE is the major source of the angiogenic factor VEGF and therefore plays a central role in the modulation and progression of choroidal neovascularization [Spilsbury et al, The American Journal of Pathology 2000, 157, 135-144; Betts et al, ISRN Ophthalmology 2011, 2011, 184295] leading to AMD. As part of our preliminary result to evaluate if compounds 1 and 2 can inhibit the HMGB1 (an endogenous ligand for TLR4) induced VEGF production in ARPE-19 cells. […] 2×10^5 ARPE-19 cells were seeded in 24 well plate for 24 h in full medium containing 10% serum following which they were maintained for additional 24 h with serum free medium. Cells were treated with 0 μg/mL (medium) or 100 ng/mL of HMGB1 along with or without of 50 μg/mL of test compounds for 24 h. Supernatant was collected and assayed using human VEGF ELISA kit from Peprotech according to manufacturer's instructions. RPE cells are located adjacent to choroidal capillaries and other major ocular vasculatures.

[2] = system: LPS induced cytokines (TNF-α, IL-1β and IL-6) in human monocytes; assay: Inhibition of LPS induced inflammatory mediators in human monocytes; type: cell-based; settings: for inhibiting LPS induced inflammation biomarkers (TNF-α, IL-1β and IL-6) in human monocytes: concentration not given; for inhibition of LPS induced TNF-α production: 100 μM
Experimental: To understand the structural requirement and limitations to probe the TLR4 binding pocket for optimal potency and efficacy, we have studied the ability of chitooligomers to inhibit LPS induced inflammation in human monocytes (FIG-8 A-B). Compounds 1-4 inhibited LPS induced cytokines TNF-α, IL-1β and IL-6) in a statistically significant manner at 10 μM concentration. […] The protocol was followed as described [Panda etal, PLoS Pathog 2012, 8, e1002717]. Human monocytes were stimulated with LPS along with the series of compounds (10 μM) for 48 h. TNF-α, IL-1β, I1-6 in culture supernatants were quantified according to the manufacturer's instruction. Similarly, other analogs were assessed for their ability to inhibit LPS induced TNF-α production in human monocytes.

[3] = system: LPS induced TNF-α in mouse bone marrow derived macrophages; assay: Inflammatory mediator (TNF-α) in mouse bone marrow derived macrophages; type: cell-based; settings: for inhibition of LPS induced production of TNF-α: 100 μM, 8 hours, mouse bone marrow derived macrophages; for inhibiting LPS and HMGB1 induced inflammation biomarkers (TNF-α, IL-1β and IL-6): bone derived mouse macrophages
Experimental: Bone marrow derived mouse macrophages were treated with 100 μM of the above test compounds for 8 hours. Pro-inflammatory cytokines such as TNF-α protein level was measured by […]. LPS treatment (10 ng/ml) was used as positive control (FIG. 9).

[4] = system: laser-induced choroidal neovascularization; assay: Laser-induced CNV mouse model for wet AMD; type: in vivo, C57BL/6 mice
Source text: The parameters used to reproducibly obtain successful laser spots (as confirmed by a gas bubble formation indicating rupture of Bruch membrane) were: 350 mW, 75 msec, and 50 μm spot size. Four laser spots were applied; 2-3 disc diameters from the optic nerve. […] By the end of the experiment, mouse eyes were examined by fundus fluorescein angiography and/or optical coherence tomography (OCT) to visualize the CNV lesions. Afterwards animals were sacrificed and RPE/choroid/sclera flat mounts were prepared and stained with both FITC-conjugated isolectin B4 and anti-ICAM-2 antibody to quantitatively measure the size of CNV. We have performed two experiments to test the effects of 1, 2, 26 on laser-induced CNV.

[5] = system: gram negative (E. Coli, P. Aeruginosa, A, Baumannii, K. Pneumonia), gram positive (MRSA), fungus (C. Albicans); assay: MIC broth microdilution antimicrobial screen; type: cell-based
Source text: The compounds were screened against selected gram negative (E. Coli, P. Aeruginosa, A, Baumannii, K. Pneumonia), gram positive (MRSA) as well as fungus (C. Albicans) mostly found in burn and septic wounds. […] All prepared compounds have been evaluated in a Minimum Inhibitory Concentrations (MIC) assay with both test and control articles in accordance with guidelines of the Clinical Laboratory Standards Institute (CLSI) for broth microdilution susceptibility testing. Briefly, test and control compounds have been dissolved in DMSO, diluted to proper concentrations and added to 96-well microdilution trays. Brain Heart Infusion Broth (BHI) was used for studies with bacterial strains such as S. aureus, E. coli, P. Aeruginosa, K pneumoniae, A. baumannii and Candida albicans. Compounds were diluted serially from 200 μg/ml to 0.0625 μg/ml and plated in 96 well plates, and inoculated with approximately 1×10^5 CFU of each organism.

MRSA and MSSA strains = assay: Activity against MRSA and MSSA strains compared to colistin; type: cell-based, S. aureus; settings: colistin as positive control
Source text: (§1) Further we studied their biofilm inhibition and eradication activities against biofilm cells as described previously [Ceri et al, Journal of Clinical Microbiology 1999, 37, 1771-1776]. […] Thus, these compounds with activities against S. aureus biofilms will have significant impact on controlling recalcitrant biofilm-mediated endovascular infections [Li et al, J Infect Dis. 2016 Nov. 1;214(9):1421-1429; Archer et al, Virulence 2011, 2, 445-459]. Briefly, we used Calgary Biofilm Device (CBD) technology for the biofilm susceptibilities to compounds. The CBD produces 96 equivalent biofilms for the assay of antibiotic susceptibilities by the standard 96-well technology. Susceptibility to a standard group of compounds and antibiotics was determined for National Committee for Clinical Laboratory Standards (NCCLS) as described previously.

[6] = system: S. aureus biofilms (MRSA, MSSA); assay: Biofilm inhibition and eradication, Calgary Biofilm Device; type: cell-based
Source text: as §1

E. coli (ATCC-25922) = assay: Lethal gram negative E. coli sepsis mouse model; type: in vivo; settings: 250 μg/animal with 2×10^5 CFU E. coli intraperitoneally, BALB/c mice
Experimental: In an in vivo mice model, chitohexaose (Compound 1) protected mouse from lethal gram negative sepsis against E. coli. Previously reported bacterial sepsis model [Roger etal, Proc Natl Acad Sci USA. 2009 Feb 17;106(7):2348-52] was recruited to study the efficacy of Compound 1 (FIG-1). Intraperitoneally 2×10^5 CFU of E. coli (ATCC-25922) was injected into BALB/c mice with and without Compound 1 (250 μg/animal). E. coli mediated sepsis induced mortality whereas simultaneous treatment of mice with Compound 1 protected (40%) from sepsis induced death. The above result explained that bacteria induced sepsis and mortality is inhibited and delayed for a certain period of time which may provide a window for therapy.

Molecule	HMGB1 induced VEGF production [1]	inhibiting LPS induced inflammation biomarkers (TNF-α, IL-1β and IL-6) in human monocytes [2]	inhibition of LPS induced production of TNF-α [3]	inhibiting LPS and HMGB1 induced inflammation biomarkers (TNF-α, IL-1β and IL-6) [3]	inhibition of LPS induced TNF-α production ([2]; human monocytes)	activity against MRSA and MSSA strains compared to colistin (MRSA and MSSA strains)	further results
chitohepatose [Compound 2]	effectively reduced	unexpectedly potent activity	Inhibits	unexpectedly potent activity	–	–	potency relative to chitohexaose (Compound 1), percentage of inhibition of LPS mediated induction of inflammatory cytokines ([2]; 10 μM, human monocytes): more potent than chitohexaose; average size of CNV lesions, relative to control mice treated with vehicle only ([4]; 200 μg daily i.p. injection): about 60%; decrease of choroidal neovascularization ([4]; as worded in heading of Example 16): ~60%
CC(=O)NC1C(OC2C(CO)OC(Oc3ccc4c(C)cc(=O)oc4c3)C(NC(C)=O)C2O)OC(CO)C(O)C1O (stereo not shown) [Compound 12]	–	–	–	–	potent inhibitor	better activity	broad spectrum antimicrobial activity against gram negative, gram positive bacteria and fungus [5]: broad spectrum antimicrobial activity; inhibition of biofilm formation by MSSA and MRSA [6]: unexpectedly inhibited biofilm formation
chitooctaose [Compound 3]	–	unexpectedly potent activity	–	unexpectedly potent activity	–	–	–
CC1(C)CC(C(=O)NC2C(OC3C(CO)OC(O)C(N)C3O)OC(CO)C(OC3OC(CO)C(O)C(O)C3N)C2O)CC(C)(C)N1[O] (stereo not shown) [Compound 11]	–	unexpectedly superior activity	–	–	–	–	–
COCC1OC(Oc2ccc([N+](=O)[O-])cc2)C(NC(C)=O)C(O)C1O (stereo not shown) [Compound 16]	–	–	–	–	potent inhibitor	–	–
chitohexaose [Compound 1]	effectively reduced	–	Inhibits	–	–	better activity	protection from sepsis induced death (E. coli (ATCC-25922)): 40%

Source: US11207343B2, “Compositions and therapeutic methods” (AyuVis Research LLC, priority 2016, dated 2021)
